From PubChem BioAssay (NCI)
≈ marks a conversion by molar mass, not a printed value.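 Cells were grown in 96-well plates and exposed to each compound for 48 hours at five concentrations; endpoints were interpolated linearly between bracketing concentrations, or set to the highest concentration if not reached. Abbreviation: GI50, concentration required for 50% inhibition of growth. TGI: concentration producing complete growth inhibition.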

Key:
Assay in all cases: NCI tumour cell line growth inhibition, 48 h
K-562 leukemia = system: K-562 leukemia
MDA-MB-435 = system: MDA-MB-435
NCI-H522 lung = system: NCI-H522 lung
OVCAR-3 ovarian = system: OVCAR-3 ovarian
SK-OV-3 ovarian = system: SK-OV-3 ovarian
SNB-19 CNS = system: SNB-19 CNS
U251 CNS = system: U251 CNS
UACC-257 melanoma = system: UACC-257 melanoma
UO-31 renal = system: UO-31 renal
RPMI-8226 leukemia = system: RPMI-8226 leukemia
T-47D breast = system: T-47D breast

| SMILES | TGI (K-562 leukemia) | TGI (MDA-MB-435) | TGI (NCI-H522 lung) | TGI (OVCAR-3 ovarian) | TGI (SK-OV-3 ovarian) | TGI (SNB-19 CNS) | TGI (U251 CNS) | TGI (UACC-257 melanoma) | TGI (UO-31 renal) | TGI (RPMI-8226 leukemia) | TGI (T-47D breast) | GI50 (K-562 leukemia) | GI50 (NCI-H522 lung) | GI50 (OVCAR-3 ovarian) | GI50 (RPMI-8226 leukemia) | GI50 (SK-OV-3 ovarian) | GI50 (SNB-19 CNS) | GI50 (U251 CNS) | GI50 (UACC-257 melanoma) | GI50 (UO-31 renal) |
| --- | --- | --- | --- | --- | --- | --- | --- | --- | --- | --- | --- | --- | --- | --- | --- | --- | --- | --- | --- | --- |
| S=C1SC(c2ccc(Cl)cc2)(c2ccc(Cl)cc2)c2ccccc21 | > 100 µM | > 100 µM | > 100 µM | > 100 µM | > 100 µM | > 100 µM | > 100 µM | > 100 µM | > 100 µM | – | – | – | – | – | – | – | – | – | – | – |
| COc1cc2c(cc1OC)C(Cc1c3ccccc3cc3ccccc13)N(C)CC2 (centres undefined) | 39.3 µM | – | 60 µM | > 61.1 µM | 84.5 µM | 52.4 µM | 35.6 µM | 35.5 µM | 57.4 µM | 34 µM | – | – | – | – | – | – | – | – | – | – |
| CC1(C)OC(=S)N(c2ccccc2)C12C=Cc1cc3ccccc3cc1O2 (centres undefined) | > 100 µM | > 100 µM | – | > 100 µM | > 100 µM | > 100 µM | > 100 µM | > 100 µM | > 100 µM | > 100 µM | > 100 µM | – | – | – | – | – | – | – | – | – |
| S=C(Nc1ccccc1)N1N=C2c3ccccc3CC[C@H]2[C@@H]1c1ccccc1 | – | – | 4.12 µM | > 100 µM | > 100 µM | > 100 µM | > 100 µM | > 100 µM | > 100 µM | > 100 µM | – | – | – | – | – | – | – | – | – | – |
| Cn1c(=O)c2nc(N3CCCCC3)cnc2n(C)c1=O | > 100 µM | – | > 100 µM | > 100 µM | > 100 µM | > 100 µM | > 100 µM | > 100 µM | > 100 µM | > 100 µM | – | – | – | – | – | – | – | – | – | – |
| O=C1C[C@H]2[C@H](c3ccc(Br)cc3)[C@H]3C(=O)c4ccccc4NC(=O)[C@@H]3[C@@]2(O)c2ccccc2N1 | 48.9 µM | 26.9 µM | 69.3 µM | 37 µM | 78.8 µM | > 100 µM | > 100 µM | 54.1 µM | – | 62.4 µM | – | – | – | – | – | – | – | – | – | – |
| CC(=O)Nc1ccc(-c2nc3ccccc3s2)cc1O | > 100 µM | > 100 µM | 9.85 µM | > 100 µM | – | > 100 µM | > 100 µM | > 100 µM | > 100 µM | > 100 µM | > 100 µM | – | – | – | – | – | – | – | – | – |
| CN1OC2OC(=O)OC2[C@H]1[C@H]1O[C@H](c2ccccc2)OC1(C)c1cc(OC(=O)c2ccccc2)ccc1OC(=O)c1ccccc1 (some centres undefined) | > 50 µM | – | > 50 µM | > 50 µM | > 50 µM | > 50 µM | > 50 µM | > 50 µM | > 50 µM | > 50 µM | – | – | – | – | – | – | – | – | – | – |
| CCNCCCCNCC | > 3750 µM | – | > 3750 µM | > 3750 µM | > 3750 µM | > 3750 µM | > 3750 µM | > 3750 µM | > 3400 µM | > 3750 µM | – | – | – | – | – | – | – | – | – | – |
| CC[C@]12C=CCN3CCC4(c5cc([C@@]6(C(=O)OC)CC7CN(CCc8c6[nH]c6ccccc86)C[C@@H]6CCC[C@H]76)c(OC)cc5N(C)C4[C@](O)(C(=O)OC)C1OC(C)=O)C32 (some centres undefined) | > 10 µM | 0.0249 µM | 0.113 µM | 0.337 µM | > 2.54 µM | > 10 µM | > 5.19 µM | > 10 µM | > 10 µM | > 7.96 µM | – | – | – | – | – | – | – | – | – | – |
| Cc1nn(C)c2c1C(=O)N(C)CC(=O)N2C | > 100 µM | > 100 µM | > 100 µM | > 100 µM | > 100 µM | > 100 µM | > 100 µM | > 100 µM | > 100 µM | > 100 µM | – | – | – | – | – | – | – | – | – | – |
| NC(N)=Nc1nc2ccccc2[nH]1 | > 150 µg/mL | – | 46.5 µg/mL | > 150 µg/mL | > 150 µg/mL | > 150 µg/mL | > 150 µg/mL | > 150 µg/mL | 107 µg/mL | 29.7 µg/mL | – | 27.6 µg/mL (≈ 157 µM) | 5.66 µg/mL (≈ 32.3 µM) | 38.4 µg/mL (≈ 219 µM) | 2.98 µg/mL (≈ 17 µM) | 150 µg/mL (≈ 856 µM) | 137 µg/mL (≈ 782 µM) | 55.3 µg/mL (≈ 316 µM) | 72.4 µg/mL (≈ 413 µM) | 20 µg/mL (≈ 114 µM) |
| CC1=C2C(O)C(C(C)C(=O)NC(C)C)CCC2(C)C=CC1=O (centres undefined) | > 100 µM | – | > 100 µM | > 100 µM | > 100 µM | > 100 µM | > 100 µM | > 100 µM | > 100 µM | > 100 µM | – | – | – | – | – | – | – | – | – | – |
| CCCCCCCC/C=C/CCCCCCCC1CC(O)C(=O)O1 (centres undefined) | > 100 µM | > 100 µM | – | 95.7 µM | > 100 µM | > 100 µM | > 100 µM | > 100 µM | > 100 µM | 76.7 µM | > 100 µM | – | – | – | – | – | – | – | – | – |
| Cc1cc(N=Nc2ccc(N=Nc3c(O)c(S(=O)(=O)O)cc4cc(S(=O)(=O)O)ccc34)cc2C)ccc1N=Nc1ccc2cc(S(=O)(=O)O)cc(S(=O)(=O)O)c2c1 | > 100 µM | – | > 100 µM | > 100 µM | > 100 µM | > 100 µM | > 100 µM | > 100 µM | > 100 µM | > 100 µM | – | – | – | – | – | – | – | – | – | – |
| O=C(O)CNS(=O)(=O)c1ccc(NC(=O)Nc2ccccc2)cc1 | > 100 µM | – | > 100 µM | > 100 µM | > 100 µM | > 100 µM | > 100 µM | > 100 µM | > 100 µM | > 100 µM | – | – | – | – | – | – | – | – | – | – |
| N#Cc1c2nc3ccccc3nc2n2ccc3ccccc3c12 | > 100 µM | – | > 100 µM | > 100 µM | > 100 µM | > 100 µM | > 100 µM | > 100 µM | > 100 µM | > 100 µM | – | – | – | – | – | – | – | – | – | – |
| O=c1[nH]c(=O)n(C2CC(O)C(CO)O2)cc1C#Cc1cc(F)cc(F)c1 (centres undefined) | > 100 µM | – | > 100 µM | > 100 µM | > 100 µM | > 100 µM | > 100 µM | > 100 µM | > 100 µM | > 100 µM | – | – | – | – | – | – | – | – | – | – |
| COc1cc2c(cc1O)C(C)Cc1cc3c(cc1N(C)CC2)OCO3 (centres undefined) | > 27.9 µM | – | 4.94 µM | 8.83 µM | 22.8 µM | > 87.4 µM | 14.8 µM | > 47.2 µM | 37.8 µM | > 33.9 µM | – | – | – | – | – | – | – | – | – | – |
| COC(=O)CCC(=O)c1ccc2c(c1)CC1(C2)Cc2ccc3c(c2C1)CCCC3=O (centres undefined) | 9.44 µM | 19.9 µM | > 73.5 µM | 47.7 µM | > 100 µM | > 100 µM | > 100 µM | 54.6 µM | > 59.3 µM | – | > 100 µM | – | – | – | – | – | – | – | – | – |
| Cc1cc(-c2ccccc2)cc2[n+]1CC=C2 | – | – | > 100 µM | – | – | > 100 µM | > 100 µM | > 100 µM | > 100 µM | – | – | – | – | – | – | – | – | – | – | – |
